The results in this text go back to ChEMBL document CHEMBL3997804, “Evaluation of a series of 2-napthamide derivatives as inhibitors of the drug efflux pump AcrB for the reversal of antimicrobial resistance” (Bioorg Med Chem Lett, 2017).

Series [1] has as its system Escherichia coli BW25113. Kind of series: Inhibition of AcrB in wild-type drug resistant Escherichia coli BW25113 assessed as potentiation of tetraphenyl phosphonium chloride-induced antibacterial activity after 18 hrs by checkerboard method.
Series [2] has as its system Escherichia coli. Kind of series: Growth inhibition of wild-type drug-resistant Escherichia coli BW25113 after 18 hrs by resazurin dye based broth microdilution method.
For series [3], the system named is Escherichia coli BW25113. Put plainly: Inhibition of AcrB in wild-type drug resistant Escherichia coli BW25113 assessed as potentiation of erythromycin-induced antibacterial activity after 18 hrs by checkerboard method.
The subject of series [4] is Escherichia coli BW25113. Put plainly: Inhibition of AcrB in wild-type drug resistant Escherichia coli BW25113 assessed as potentiation of chloramphenicol-induced antibacterial activity after 18 hrs by checkerboard method.
For series [5], the system named is Escherichia coli. Put plainly: Effect on rifampicin-induced antibacterial activity against wild-type drug resistant Escherichia coli BW25113 after 18 hrs by checkerboard method. Format: functional.
The subject of series [6] is Escherichia coli BW25113. Kind of series: Inhibition of AcrB in drug resistant Escherichia coli BW25113 assessed as reduction in nile red efflux at 200 uM pretreated for 15 mins followed by nile red addition measured after 3 hrs for 200 secs in presence of glucose by fluorimetric method.
The subject of series [7] is Escherichia coli BW25113. Kind of series: Inhibition of AcrB in drug resistant Escherichia coli BW25113 assessed as reduction in nile red efflux at 500 uM pretreated for 15 mins followed by nile red addition measured after 3 hrs for 200 secs in presence of glucose by fluorimetric method.
In series [8] the test system is Escherichia coli BW25113. Put plainly: Inhibition of […] in drug resistant Escherichia coli BW25113 assessed as increase in outer membrane permeability by measuring increase nitrocefin hydrolysis at 512 ug/ml measured over 30 mins in presence of CCCP by spectrophotometric method.
For series [9], the system named is Escherichia coli BW25113. Kind of series: Inhibition of AcrB in wild-type drug resistant Escherichia coli BW25113 assessed as potentiation of erythromycin-induced antibacterial activity by measuring erythromycin MIC at 200 ug/ml after 18 hrs by checkerboard method (reference value: 128 ug/ml).
For series [10], the system named is Escherichia coli BW25113. Kind of series: Inhibition of AcrB in wild-type drug resistant Escherichia coli BW25113 assessed as potentiation of tetraphenyl phosphonium chloride-induced antibacterial activity by measuring tetraphenyl phosphonium chloride MIC at 200 ug/ml after 18 hrs by checkerboard method (reference value: 1024 ug/ml).
The test system of series [11] is Escherichia coli. Kind of series: Effect on rifampicin-induced antibacterial activity against wild-type drug resistant Escherichia coli BW25113 assessed as rifampicin MIC at 200 ug/ml after 18 hrs by checkerboard method (reference value: 16 ug/ml). It counts as functional. To be noted: BW25113, 18 h.
For series [12], the system named is Escherichia coli BW25113. Put plainly: Inhibition of AcrB in wild-type drug resistant Escherichia coli BW25113 assessed as potentiation of chloramphenicol-induced antibacterial activity by measuring chloramphenicol MIC at 200 ug/ml after 18 hrs by checkerboard method (reference value: 8 ug/ml).

Activity calls are given as the source filed them. The rule behind the calls is not given here. Peptide text beside a SMILES is read from it. * marks the point of attachment. βNA = c1ccc2cc(N*)ccc2c1

Take `NC(=O)c1cc(OCc2cccc(F)c2)c2ccccc2c1`: the inhibition result in the series on Escherichia coli BW25113 [1], in the series on Escherichia coli BW25113 [3] and with Escherichia coli BW25113 [4] was “inactive” throughout. Besides, the “growth inhibition (GI)” value with Escherichia coli [2] is “Non-Toxic”. Besides, the outcome in the series on Escherichia coli [5] was inactive.

In the case of `NC(=O)c1cc(OCc2ccccc2F)c2ccccc2c1`, the inhibition result in the series with Escherichia coli BW25113 [1], with Escherichia coli BW25113 [3] and with Escherichia coli BW25113 [4] was “inactive” throughout. Moreover, in the series on Escherichia coli [2], the “growth inhibition (GI)” value is given as “Non-Toxic”. The inhibition result in the series with Escherichia coli BW25113 [6] was “Active”. For the same compound, in the series on Escherichia coli [5], the result was inactive.

For `CCOC(=O)CCCOc1cc(C(N)=O)cc2ccccc12`, the inhibition result in the series on Escherichia coli BW25113 [1], in the series with Escherichia coli BW25113 [3] and in the series with Escherichia coli BW25113 [4] was “inactive” in each case. Also, the “growth inhibition (GI)” value with Escherichia coli [2] is “Non-Toxic”. Moreover, the outcome in the series with Escherichia coli [5] was inactive.

With `CCOC(=O)C(C)Oc1cc(C(N)=O)cc2ccccc12` (stereo not drawn), the inhibition entry in the series on Escherichia coli BW25113 [1], in the series with Escherichia coli BW25113 [3] and in the series on Escherichia coli BW25113 [4] was “inactive” in each case. In addition, the “growth inhibition (GI)” value with Escherichia coli [2] is reported as “Non-Toxic”. The outcome with Escherichia coli [5] was inactive.

Turning to `Cc1ccccc1COc1cc(C(N)=O)cc2ccccc12`, the inhibition result in the series with Escherichia coli BW25113 [1], with Escherichia coli BW25113 [3] and with Escherichia coli BW25113 [4] was “inactive” throughout. Moreover, the “growth inhibition (GI)” value in the series on Escherichia coli [2] was “Non-Toxic”. Moreover, the outcome with Escherichia coli [5] was inactive.

Regarding `CC(C)COc1cc(C(N)=O)cc2ccccc12`, the inhibition entry in the series on Escherichia coli BW25113 [7], with Escherichia coli BW25113 [3] and in the series on Escherichia coli BW25113 [8] was “Active” throughout. For the same compound, in the series with Escherichia coli [2], the “growth inhibition (GI)” value is listed as “Non-Toxic”.

As for `N=C(N)NCCC[C@H](NC(=O)[C@@H](N)Cc1ccccc1)C(=O)Nc1ccc2ccccc2c1` [PABETAN] (H-Phe-Arg-βNA), the MIC with Escherichia coli BW25113 [9] turned out to be 16 µg/mL; in the series with Escherichia coli BW25113 [10] it was 128 µg/mL; in the series on Escherichia coli [11], 1 µg/mL; in the series on Escherichia coli BW25113 [12] it was 2 µg/mL.

Regarding `NC(=O)c1cc(OCC2CCCC2)c2ccccc2c1`, the inhibition result in the series with Escherichia coli BW25113 [1], in the series with Escherichia coli BW25113 [3] and in the series on Escherichia coli BW25113 [4] was “inactive” throughout. Also, the “growth inhibition (GI)” value with Escherichia coli [2] is listed as “Non-Toxic”. Further, the outcome in the series on Escherichia coli [5] was inactive.

On to `NC(=O)c1cc(OCc2ccc(F)cc2)c2ccccc2c1`, for which the inhibition result in the series with Escherichia coli BW25113 [1], in the series on Escherichia coli BW25113 [3] and in the series with Escherichia coli BW25113 [4] was “inactive” each time. In the series on Escherichia coli [2], the “growth inhibition (GI)” value is recorded as “Non-Toxic”. Moreover, the result with Escherichia coli [5] was inactive.

Take `CCC(C)Oc1cc(C(N)=O)cc2ccccc12` (stereo not drawn): the inhibition entry in the series with Escherichia coli BW25113 [1], in the series with Escherichia coli BW25113 [3] and in the series with Escherichia coli BW25113 [4] was “inactive” each time. Besides, the “growth inhibition (GI)” value in the series on Escherichia coli [2] is on record as “Non-Toxic”. The outcome with Escherichia coli [5] was inactive.

In the case of `NC(=O)c1cc(OCc2ccccc2Cl)c2ccccc2c1`, the inhibition result in the series on Escherichia coli BW25113 [1], with Escherichia coli BW25113 [3] and in the series with Escherichia coli BW25113 [4] was “inactive” throughout. Also, the “growth inhibition (GI)” value in the series on Escherichia coli [2] is on record as “Non-Toxic”. In addition, the outcome in the series on Escherichia coli [5] was inactive.

`CCOC(=O)COc1cc(C(N)=O)cc2ccccc12`: the inhibition entry in the series with Escherichia coli BW25113 [1], in the series on Escherichia coli BW25113 [3] and with Escherichia coli BW25113 [4] was “inactive” each time. The “growth inhibition (GI)” value in the series with Escherichia coli [2] is “Non-Toxic”. Besides, in the series with Escherichia coli [5], the result was inactive.

Turning to `CCCCC(CC)COc1cc(C(N)=O)cc2ccccc12` (stereo not drawn), the inhibition result in the series with Escherichia coli BW25113 [1], in the series on Escherichia coli BW25113 [3] and with Escherichia coli BW25113 [4] was “inactive” each time. Besides, the “growth inhibition (GI)” value in the series on Escherichia coli [2] is listed as “Non-Toxic”. Besides, the result in the series with Escherichia coli [5] was inactive.

In the case of `NC(=O)c1cc(OCc2ccccc2)c2ccccc2c1`, the inhibition result in the series with Escherichia coli BW25113 [7], with Escherichia coli BW25113 [8] and with Escherichia coli BW25113 [4] was “Active” throughout. In the series on Escherichia coli [2], the “growth inhibition (GI)” value was “Non-Toxic”.
